# From US20120034193A1, “TREATMENT OF NEUROTROPHIC FACTOR MEDIATED DISORDERS” (priority 2009, published 2012)
# Columns and labels:
# Conditions in all cases: smilagenin 1 μM
# [1] = target: Protein Serine/Threonine Kinase, MAPK1 (ERK2) (Homo sapiens, UniProt P28482); assay: Functional assay; assay type: biochemical
# Experimental: (§1) The enzyme activity modulation was investigated using the following method: Sarsasapogenin was incubated with each enzyme plus a specific substrate for each enzyme. After the incubation period the reaction was stopped and the reduction of the specific substrate or the increase in a specific product in the absence and presence of sarsasapogenin was measured and the percent inhibition of the reaction in the presence of sarsasapogenin was calculated. The amount of enzyme used, the incubation conditions, the substrate used and the method of quantification varied depending on each specific assay.
# (§2) Using the same methods as described above, the binding of smilagenin (1 μM) to the receptors listed in Table 2 below, and the effect of smilagenin on the activity of the enzymes listed in Table 2 below, were investigated.
# [2] = target: Protein Serine/Threonine Kinase, MAPK13 (p38δ) (Homo sapiens, UniProt O15264); assay: Functional assay; assay type: biochemical
# Experimental: as §1, §2
# [3] = target: Protein Tyrosine Kinase, NTRK2 (trkB) (Homo sapiens, UniProt Q16620); assay: Functional assay; assay type: biochemical
# Experimental: as §1, §2
# [4] = target: Protein Tyrosine Kinase, NTRK1 (trkA) (Homo sapiens, UniProt P04629); assay: Functional assay; assay type: biochemical
# Protein Tyrosine Kinase, NTRK1 (trkA), sequence (P04629 33-796): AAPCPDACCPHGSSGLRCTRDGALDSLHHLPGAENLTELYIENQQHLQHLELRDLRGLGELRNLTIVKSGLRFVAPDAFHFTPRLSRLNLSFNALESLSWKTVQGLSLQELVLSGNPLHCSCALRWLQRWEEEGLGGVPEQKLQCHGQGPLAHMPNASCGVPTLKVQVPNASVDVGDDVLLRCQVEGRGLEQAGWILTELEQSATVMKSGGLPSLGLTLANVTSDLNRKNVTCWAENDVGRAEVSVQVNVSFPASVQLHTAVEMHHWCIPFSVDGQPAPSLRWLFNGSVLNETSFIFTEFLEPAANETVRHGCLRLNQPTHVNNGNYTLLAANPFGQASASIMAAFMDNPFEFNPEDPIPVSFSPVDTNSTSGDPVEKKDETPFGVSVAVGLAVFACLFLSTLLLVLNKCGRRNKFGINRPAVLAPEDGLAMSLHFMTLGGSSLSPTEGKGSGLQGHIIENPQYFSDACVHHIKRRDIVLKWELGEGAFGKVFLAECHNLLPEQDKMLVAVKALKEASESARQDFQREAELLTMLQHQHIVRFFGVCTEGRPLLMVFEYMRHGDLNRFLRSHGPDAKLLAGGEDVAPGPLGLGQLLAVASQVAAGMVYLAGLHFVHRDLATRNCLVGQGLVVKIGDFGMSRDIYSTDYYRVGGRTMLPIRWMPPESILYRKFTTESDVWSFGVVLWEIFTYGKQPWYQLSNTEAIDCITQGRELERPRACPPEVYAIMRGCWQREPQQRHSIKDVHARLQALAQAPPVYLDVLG
# Experimental: as §1, §2
# [5] = target: Protein Serine/Threonine Kinase, MAPK11 (p38β) (Homo sapiens, UniProt Q15759); assay: Functional assay; assay type: biochemical
# Protein Serine/Threonine Kinase, MAPK11 (p38β), sequence (Q15759 whole entry): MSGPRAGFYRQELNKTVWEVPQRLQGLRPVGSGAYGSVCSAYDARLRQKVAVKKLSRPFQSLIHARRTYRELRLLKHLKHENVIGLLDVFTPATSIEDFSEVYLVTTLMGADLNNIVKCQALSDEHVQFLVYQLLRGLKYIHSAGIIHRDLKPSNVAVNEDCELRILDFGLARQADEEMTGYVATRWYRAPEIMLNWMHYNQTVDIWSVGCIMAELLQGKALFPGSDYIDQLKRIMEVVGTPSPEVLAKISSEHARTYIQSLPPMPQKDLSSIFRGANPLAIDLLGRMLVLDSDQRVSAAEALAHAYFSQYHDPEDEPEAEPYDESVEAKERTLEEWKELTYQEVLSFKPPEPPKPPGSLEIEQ
# Experimental: as §1, §2
# [6] = target: Protein Serine/Threonine Kinase, AKT3 (PRKBG) (Homo sapiens, UniProt Q9Y243); assay: Functional assay; assay type: biochemical
# Protein Serine/Threonine Kinase, AKT3 (PRKBG), sequence (Q9Y243 whole entry): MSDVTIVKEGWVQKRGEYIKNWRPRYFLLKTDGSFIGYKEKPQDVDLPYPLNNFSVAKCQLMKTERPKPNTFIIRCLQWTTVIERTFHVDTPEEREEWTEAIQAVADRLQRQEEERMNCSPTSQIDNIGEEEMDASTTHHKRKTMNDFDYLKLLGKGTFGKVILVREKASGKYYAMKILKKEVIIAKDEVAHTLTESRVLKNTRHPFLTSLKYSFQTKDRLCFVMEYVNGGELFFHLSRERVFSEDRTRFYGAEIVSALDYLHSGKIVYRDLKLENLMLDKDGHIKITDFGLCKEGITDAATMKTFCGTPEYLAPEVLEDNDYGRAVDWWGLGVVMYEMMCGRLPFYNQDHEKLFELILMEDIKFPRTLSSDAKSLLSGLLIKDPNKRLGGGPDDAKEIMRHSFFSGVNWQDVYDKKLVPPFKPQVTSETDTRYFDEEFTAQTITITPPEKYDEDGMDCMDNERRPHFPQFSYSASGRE
# Experimental: as §1, §2
# [7] = target: Protein Tyrosine Kinase, SRC (Homo sapiens, UniProt P12931); assay: Functional assay; assay type: biochemical
# Protein Tyrosine Kinase, SRC, sequence (P12931 whole entry): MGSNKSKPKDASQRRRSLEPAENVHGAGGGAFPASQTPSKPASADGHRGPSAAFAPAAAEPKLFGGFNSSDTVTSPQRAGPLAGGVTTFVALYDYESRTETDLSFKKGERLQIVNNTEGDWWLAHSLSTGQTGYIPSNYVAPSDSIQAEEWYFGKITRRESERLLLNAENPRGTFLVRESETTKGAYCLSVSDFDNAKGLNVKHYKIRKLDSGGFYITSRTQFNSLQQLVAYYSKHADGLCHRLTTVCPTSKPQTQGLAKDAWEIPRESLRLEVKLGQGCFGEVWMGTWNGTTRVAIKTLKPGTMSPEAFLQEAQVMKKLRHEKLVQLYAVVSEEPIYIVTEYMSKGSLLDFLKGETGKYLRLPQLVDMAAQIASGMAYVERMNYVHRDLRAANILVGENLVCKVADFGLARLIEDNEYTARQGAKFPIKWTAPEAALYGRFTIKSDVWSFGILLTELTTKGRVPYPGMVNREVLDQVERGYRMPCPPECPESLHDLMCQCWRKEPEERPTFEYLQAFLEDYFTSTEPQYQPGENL
# Experimental: as §1, §2
# [8] = target: Protein Serine/Threonine Kinase, MAP2K1 (MEK1 ) (Homo sapiens, UniProt Q02750); assay: Functional assay; assay type: biochemical
# Protein Serine/Threonine Kinase, MAP2K1 (MEK1 ), sequence (Q02750 whole entry): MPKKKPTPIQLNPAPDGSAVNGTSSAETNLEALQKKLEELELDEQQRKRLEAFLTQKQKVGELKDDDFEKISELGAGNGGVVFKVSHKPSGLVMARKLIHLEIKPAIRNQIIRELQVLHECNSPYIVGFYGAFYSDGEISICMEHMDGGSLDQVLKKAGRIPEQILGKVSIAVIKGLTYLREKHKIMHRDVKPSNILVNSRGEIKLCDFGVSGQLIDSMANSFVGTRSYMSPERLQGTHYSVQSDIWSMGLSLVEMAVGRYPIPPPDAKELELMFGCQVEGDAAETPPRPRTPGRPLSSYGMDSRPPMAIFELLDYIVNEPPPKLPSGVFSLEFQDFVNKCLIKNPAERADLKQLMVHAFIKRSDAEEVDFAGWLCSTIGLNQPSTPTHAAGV
# Experimental: as §1, §2
# [9] = target: Protein Serine/Threonine Kinase, MAPK8 (JNK1) (Homo sapiens, UniProt P45983); assay: Functional assay; assay type: biochemical
# Protein Serine/Threonine Kinase, MAPK8 (JNK1), sequence (P45983 whole entry): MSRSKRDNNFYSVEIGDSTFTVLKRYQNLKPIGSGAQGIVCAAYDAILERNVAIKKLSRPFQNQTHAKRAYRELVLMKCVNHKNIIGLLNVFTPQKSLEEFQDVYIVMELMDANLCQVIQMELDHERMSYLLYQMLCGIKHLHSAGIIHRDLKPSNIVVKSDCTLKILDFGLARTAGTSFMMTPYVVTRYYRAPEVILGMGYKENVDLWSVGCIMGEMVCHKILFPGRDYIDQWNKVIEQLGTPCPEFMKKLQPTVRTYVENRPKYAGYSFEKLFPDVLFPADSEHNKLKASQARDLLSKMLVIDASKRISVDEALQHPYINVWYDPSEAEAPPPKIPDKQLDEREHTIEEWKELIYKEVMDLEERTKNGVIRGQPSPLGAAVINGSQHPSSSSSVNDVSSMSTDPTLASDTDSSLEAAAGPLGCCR
# Experimental: as §1, §2
# [10] = target: UDP Glucuronosyltransferase, UGT1A1 (Homo sapiens, UniProt P22309); assay: Functional assay; assay type: biochemical
# UDP Glucuronosyltransferase, UGT1A1, sequence (P22309 26-533): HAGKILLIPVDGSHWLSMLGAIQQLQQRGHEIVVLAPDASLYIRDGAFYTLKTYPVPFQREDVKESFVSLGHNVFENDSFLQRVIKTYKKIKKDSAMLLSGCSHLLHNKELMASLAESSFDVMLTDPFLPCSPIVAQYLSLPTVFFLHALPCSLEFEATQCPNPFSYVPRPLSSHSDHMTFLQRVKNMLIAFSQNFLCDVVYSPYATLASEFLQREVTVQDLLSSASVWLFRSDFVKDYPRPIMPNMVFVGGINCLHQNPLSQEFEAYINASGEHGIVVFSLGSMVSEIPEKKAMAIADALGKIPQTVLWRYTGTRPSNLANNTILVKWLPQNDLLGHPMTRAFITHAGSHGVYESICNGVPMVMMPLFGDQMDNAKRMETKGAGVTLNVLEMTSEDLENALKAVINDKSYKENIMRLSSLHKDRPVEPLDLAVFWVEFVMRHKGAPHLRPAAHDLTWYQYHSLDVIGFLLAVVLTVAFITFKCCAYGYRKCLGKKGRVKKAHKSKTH
# Experimental: as §1, §2
# [11] = target: Protein Serine/Threonine Kinase, AKT1 (PRKBA) (Homo sapiens, UniProt P31749); assay: Functional assay; assay type: biochemical
# Protein Serine/Threonine Kinase, AKT1 (PRKBA), sequence (P31749 whole entry): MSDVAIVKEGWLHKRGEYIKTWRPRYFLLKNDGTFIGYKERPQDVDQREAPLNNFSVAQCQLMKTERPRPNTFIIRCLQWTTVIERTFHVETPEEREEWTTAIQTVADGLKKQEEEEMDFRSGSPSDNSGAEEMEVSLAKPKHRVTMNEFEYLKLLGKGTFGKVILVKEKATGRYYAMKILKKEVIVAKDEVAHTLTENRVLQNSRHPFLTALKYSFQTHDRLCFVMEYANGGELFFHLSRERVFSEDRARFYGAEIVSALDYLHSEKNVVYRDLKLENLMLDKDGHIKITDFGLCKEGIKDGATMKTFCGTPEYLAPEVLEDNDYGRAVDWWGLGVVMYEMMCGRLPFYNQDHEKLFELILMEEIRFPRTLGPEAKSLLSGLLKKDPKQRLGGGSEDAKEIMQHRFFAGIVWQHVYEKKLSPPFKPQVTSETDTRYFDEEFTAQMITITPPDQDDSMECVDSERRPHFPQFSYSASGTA
# Experimental: as §1, §2
# [12] = target: Aldose reductase (Rattus norvegicus, UniProt P07943); assay: Functional assay; assay type: biochemical
# Experimental: as §1, §2
# [13] = Functional assay; assay type: biochemical
# Experimental: as §1, §2
# [14] = target: Protein Serine/Threonine Kinase, MAPK12 (p38γ) (Homo sapiens, UniProt P53778); assay: Functional assay; assay type: biochemical
# Protein Serine/Threonine Kinase, MAPK12 (p38γ), sequence (P53778 whole entry): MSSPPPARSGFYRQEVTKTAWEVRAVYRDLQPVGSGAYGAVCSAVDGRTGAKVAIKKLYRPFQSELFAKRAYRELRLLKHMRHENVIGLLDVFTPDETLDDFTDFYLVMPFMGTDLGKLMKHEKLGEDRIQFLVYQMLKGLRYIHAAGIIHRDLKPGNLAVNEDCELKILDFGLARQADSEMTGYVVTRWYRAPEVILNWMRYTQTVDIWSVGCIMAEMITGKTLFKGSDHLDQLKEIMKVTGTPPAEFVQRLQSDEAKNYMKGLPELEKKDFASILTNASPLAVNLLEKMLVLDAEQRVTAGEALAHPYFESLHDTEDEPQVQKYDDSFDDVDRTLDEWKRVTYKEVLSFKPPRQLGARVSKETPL
# Experimental: as §1, §2
# [15] = target: Protein Serine/Threonine Kinase, CAMK2D (KCC2D) (Homo sapiens, UniProt Q13557); assay: Functional assay; assay type: biochemical
# Experimental: as §1, §2
# [16] = test system: Imidazoline I2, central; assay: Binding assay; set-up: species or system Rat
# Experimental: (§3) The receptor binding was investigated using the following method: Sarsasapogenin was incubated with tissue or cell homogenate that expressed the receptor of interest and a known concentration a radiolabelled compound with affinity for the receptor of interest. After the incubation period the non-bound radiolabelled compound was removed and the amount of specific binding was quantified. The amount of specific binding in the presence and absence of sarsasapogenin were compared and the percent inhibition of the binding of the radiolabelled compound by sarsasapogenin was calculated. The source of the receptor, the incubation conditions, the radiolabelled compound used varied depending on each specific assay.
# as §2
# [17] = test system: Thyroid Hormone; assay: Binding assay; set-up: species or system Rat
# Experimental: as §3, §2
# [18] = test system: Potassium Channel [KA]; assay: Binding assay; set-up: species or system Rat
# Experimental: as §3, §2
# [19] = test system: Calcium Channel L-Type, Dihydropyridine; assay: Binding assay; set-up: species or system Rat
# Experimental: as §3, §2
# [20] = test system: Glutamate, NMDA, Phencyclidine; assay: Binding assay; set-up: species or system Rat
# Experimental: as §3, §2
# [21] = test system: Rolipram; assay: Binding assay; set-up: species or system Rat
# Experimental: as §3, §2
# [22] = test system: Transporter, GABA; assay: Binding assay; set-up: species or system Rat
# Experimental: as §3, §2
# [23] = test system: Glutamate, NMDA, Agonism; assay: Binding assay; set-up: species or system Rat
# Experimental: as §3, §2
# [24] = test system: Glutamate, AMPA; assay: Binding assay; set-up: species or system Rat
# Experimental: as §3, §2
# [25] = test system: Calcium Channel L-Type, Benzothiazepine; assay: Binding assay; set-up: species or system Rat
# Experimental: as §3, §2
# [26] = test system: Glutamate, NMDA, Polyamine; assay: Binding assay; set-up: species or system Rat
# Experimental: as §3, §2
# [27] = test system: GABAA Flunitrazepam, Central; assay: Binding assay; set-up: species or system Rat
# Experimental: as §3, §2
# [28] = test system: Inositol trisphosphate IP3; assay: Binding assay; set-up: species or system Rat
# Experimental: as §3, §2
# [29] = test system: Purinergic P2Y; assay: Binding assay; set-up: species or system Rat
# Experimental: as §3, §2
# [30] = test system: Calcium Channel L-Type, Phenylalkylamine; assay: Binding assay; set-up: species or system Rat
# Experimental: as §3, §2
# [31] = test system: Gabapentin; assay: Binding assay; set-up: species or system Rat
# Experimental: as §3, §2
# [32] = test system: Potassium Channel [SKCA]; assay: Binding assay; set-up: species or system Rat
# Experimental: as §3, §2
# [33] = test system: Sodium Channel, Site 2; assay: Binding assay; set-up: species or system Rat
# Experimental: as §3, §2
# [34] = test system: Glutamate, Kainate; assay: Binding assay; set-up: species or system Rat
# Experimental: as §3, §2
# Protein Serine/Threonine Kinase, MAPK1 (ERK2), sequence (P28482 whole entry): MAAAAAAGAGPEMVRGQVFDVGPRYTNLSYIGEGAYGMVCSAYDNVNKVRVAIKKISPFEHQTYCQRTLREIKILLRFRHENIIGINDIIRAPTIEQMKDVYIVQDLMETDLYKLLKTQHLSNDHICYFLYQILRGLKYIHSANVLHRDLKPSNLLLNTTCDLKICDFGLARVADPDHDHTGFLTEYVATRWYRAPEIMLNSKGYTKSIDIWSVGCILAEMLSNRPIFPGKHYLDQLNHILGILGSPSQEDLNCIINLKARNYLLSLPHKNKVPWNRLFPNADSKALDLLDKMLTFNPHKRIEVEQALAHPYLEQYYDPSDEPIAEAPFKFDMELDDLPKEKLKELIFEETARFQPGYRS
smiles,measurement,setting,value
"C[C@@H]1CC[C@@]2(OC1)O[C@H]1C[C@H]3[C@@H]4CC[C@@H]5C[C@@H](O)CC[C@]5(C)[C@H]4CC[C@]3(C)[C@H]1[C@@H]2C [Smilagenin, smilagenin]",Effect (%),[1],NS (NS = No significant response. Significance was taken as ≧30% stimulation or inhibition)
same,Effect (%),[2],NS (NS = No significant response. Significance was taken as ≧30% stimulation or inhibition)
same,Effect (%),[3],NS (NS = No significant response. Significance was taken as ≧30% stimulation or inhibition)
same,Effect (%),[4],NS (NS = No significant response. Significance was taken as ≧30% stimulation or inhibition)
same,Effect (%),[5],NS (NS = No significant response. Significance was taken as ≧30% stimulation or inhibition)
same,Effect (%),[6],NS (NS = No significant response. Significance was taken as ≧30% stimulation or inhibition)
same,Effect (%),[7],NS (NS = No significant response. Significance was taken as ≧30% stimulation or inhibition)
same,Effect (%),[8],NS (NS = No significant response. Significance was taken as ≧30% stimulation or inhibition)
same,Effect (%),[9],NS (NS = No significant response. Significance was taken as ≧30% stimulation or inhibition)
same,Effect (%),[10],NS (NS = No significant response. Significance was taken as ≧30% stimulation or inhibition)
same,Effect (%),[11],NS (NS = No significant response. Significance was taken as ≧30% stimulation or inhibition)
same,Effect (%),[12],NS (NS = No significant response. Significance was taken as ≧30% stimulation or inhibition)
same,Effect (%),[13],NS (NS = No significant response. Significance was taken as ≧30% stimulation or inhibition)
same,Effect (%),[14],NS (NS = No significant response. Significance was taken as ≧30% stimulation or inhibition)
same,Effect (%),[15],NS (NS = No significant response. Significance was taken as ≧30% stimulation or inhibition)
same,Effect (%),[16],NS (NS = No significant response. Significance was taken as ≧30% stimulation or inhibition)
same,Effect (%),[17],NS (NS = No significant response. Significance was taken as ≧30% stimulation or inhibition)
same,Effect (%),[18],NS (NS = No significant response. Significance was taken as ≧30% stimulation or inhibition)
same,Effect (%),[19],NS (NS = No significant response. Significance was taken as ≧30% stimulation or inhibition)
same,Effect (%),[20],NS (NS = No significant response. Significance was taken as ≧30% stimulation or inhibition)
same,Effect (%),[21],NS (NS = No significant response. Significance was taken as ≧30% stimulation or inhibition)
same,Effect (%),[22],NS (NS = No significant response. Significance was taken as ≧30% stimulation or inhibition)
same,Effect (%),[23],NS (NS = No significant response. Significance was taken as ≧30% stimulation or inhibition)
same,Effect (%),[24],NS (NS = No significant response. Significance was taken as ≧30% stimulation or inhibition)
same,Effect (%),[25],NS (NS = No significant response. Significance was taken as ≧30% stimulation or inhibition)
same,Effect (%),[26],NS (NS = No significant response. Significance was taken as ≧30% stimulation or inhibition)
same,Effect (%),[27],NS (NS = No significant response. Significance was taken as ≧30% stimulation or inhibition)
same,Effect (%),[28],NS (NS = No significant response. Significance was taken as ≧30% stimulation or inhibition)
same,Effect (%),[29],NS (NS = No significant response. Significance was taken as ≧30% stimulation or inhibition)
same,Effect (%),[30],NS (NS = No significant response. Significance was taken as ≧30% stimulation or inhibition)
same,Effect (%),[31],NS (NS = No significant response. Significance was taken as ≧30% stimulation or inhibition)
same,Effect (%),[32],NS (NS = No significant response. Significance was taken as ≧30% stimulation or inhibition)
same,Effect (%),[33],NS (NS = No significant response. Significance was taken as ≧30% stimulation or inhibition)
same,Effect (%),[34],NS (NS = No significant response. Significance was taken as ≧30% stimulation or inhibition)
